Test results as given in PubChem BioAssay (NCI).
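Dose response: 5 concentrations. Exposure: 48 h. Format: 96-well plates. Endpoint: linear interpolation; highest concentration if not reached. GI50 marks 50% less growth. TGI denotes the concentration required for complete inhibition of growth.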

What was measured:
Assay in all cases: growth of human tumour cells (NCI), 48 h; in the data active means GI50 below about 0.43 µM; inactive means the rest
[1] = test system: NCI-H522 lung
[2] = test system: RXF 393 renal
[3] = test system: SNB-19 CNS
[4] = test system: SF-539 CNS
[5] = test system: SN12C renal
[6] = test system: A498 renal
[7] = test system: HT29 colon
[8] = test system: SK-MEL-2 melanoma
[9] = test system: COLO 205 colon
[10] = test system: HOP-62 NSCLC
[11] = test system: MALME-3M melanoma
[12] = test system: UACC-62 melanoma
[13] = test system: NCI-H226 lung
[14] = test system: SF-268 CNS
[15] = test system: HS 578T breast
[16] = test system: UACC-257 melanoma
[17] = test system: A549 NSCLC
[18] = test system: LOX IMVI melanoma
[19] = test system: M14 melanoma
[20] = test system: SW-620 colon
[21] = test system: HCT-116 colon
[22] = test system: EKVX NSCLC
[23] = test system: SK-MEL-28 melanoma
[24] = test system: 786-0 renal
[25] = test system: SK-MEL-5 melanoma
[26] = test system: PC-3 prostate
[27] = test system: NCI-H23 lung
[28] = test system: DU-145 prostate
[29] = test system: IGROV1 ovarian
[30] = test system: SF-295 CNS
[31] = test system: K-562 leukemia
[32] = test system: T-47D breast
[33] = test system: UO-31 renal
[34] = test system: MDA-MB-435
[35] = test system: HL-60(TB) leukemia
[36] = test system: MCF7 breast
[37] = test system: OVCAR-3 ovarian
[38] = test system: MOLT-4 leukemia
[39] = test system: HCT-15 colon
[40] = test system: OVCAR-4 ovarian
[41] = test system: KM12 colon
[42] = test system: MDA-MB-231 breast
[43] = test system: HCC-2998 colon
[44] = test system: SNB-75 CNS
[45] = test system: SK-OV-3 ovarian
[46] = test system: BT-549 breast
[47] = test system: ACHN renal
[48] = test system: OVCAR-8 ovarian
[49] = test system: CCRF-CEM leukemia
[50] = test system: OVCAR-5 ovarian
[51] = test system: TK-10 renal
[52] = test system: U251 CNS
[53] = test system: NCI-H460 lung
[54] = test system: SR leukemia
[55] = test system: CAKI-1 renal
[56] = test system: RPMI-8226 leukemia
[57] = test system: NCI/ADR-RES ovarian

Nc1nonc1-c1nc2cnccc2n1C1CCCCC1
inactive: GI50 [1] 6.01 µM | GI50 [2] 4.8 µM | GI50 [3] > 25 µM | GI50 [4] 3.7 µM | GI50 [5] 12.5 µM | GI50 [6] 5.09 µM | GI50 [7] 9.87 µM | GI50 [8] 12 µM | GI50 [9] 6.9 µM | GI50 [10] > 25 µM | GI50 [11] > 25 µM | GI50 [12] 14.3 µM | GI50 [13] 12.9 µM | GI50 [14] > 25 µM | GI50 [15] 13.9 µM | GI50 [16] > 25 µM | GI50 [17] 13 µM | GI50 [18] 16.3 µM | GI50 [19] 24 µM | GI50 [20] 14 µM | GI50 [21] 7.45 µM | GI50 [22] > 20.3 µM | GI50 [23] > 25 µM | GI50 [24] 11.1 µM | GI50 [25] 6.04 µM | GI50 [26] > 19.9 µM | GI50 [27] > 18.5 µM | GI50 [28] 20.5 µM | GI50 [29] > 23.1 µM | GI50 [30] 9.48 µM | GI50 [31] 11 µM | GI50 [32] 13.3 µM | GI50 [33] > 24 µM | GI50 [34] 22.5 µM | GI50 [35] 7.25 µM | GI50 [36] 9.44 µM | GI50 [37] 10.7 µM | GI50 [38] 12 µM | GI50 [39] 13.4 µM | GI50 [40] > 16.6 µM | GI50 [41] 9.16 µM | GI50 [42] > 25 µM | GI50 [43] > 25 µM | GI50 [44] 2.42 µM | GI50 [45] 18.8 µM | GI50 [46] 6.29 µM | GI50 [47] 12 µM | GI50 [48] 12.8 µM | GI50 [49] 7.84 µM | GI50 [50] > 25 µM | GI50 [51] 3.44 µM | GI50 [52] 16.5 µM | GI50 [53] 10.3 µM | GI50 [54] 7.35 µM | GI50 [55] 11.6 µM | GI50 [56] 16.1 µM | GI50 [57] > 22.1 µM
19.6 µM: TGI [35]
> 25 µM: TGI [2] | TGI [3] | TGI [4] | TGI [5] | TGI [6] | TGI [7] | TGI [8] | TGI [9] | TGI [10] | TGI [11] | TGI [12] | TGI [13] | TGI [14] | TGI [15] | TGI [16] | TGI [17] | TGI [18] | TGI [19] | TGI [20] | TGI [21] | TGI [22] | TGI [23] | TGI [24] | TGI [26] | TGI [27] | TGI [28] | TGI [29] | TGI [30] | TGI [31] | TGI [32] | TGI [33] | TGI [34] | TGI [36] | TGI [37] | TGI [38] | TGI [39] | TGI [40] | TGI [41] | TGI [42] | TGI [43] | TGI [44] | TGI [45] | TGI [46] | TGI [47] | TGI [48] | TGI [49] | TGI [50] | TGI [51] | TGI [52] | TGI [53] | TGI [54] | TGI [55] | TGI [56] | TGI [57]
> 19.2 µM: TGI [25]
23.4 µM: TGI [1]
